Read-outs that look alike come from different tables or passages of the source.
Assay: Ocular tissue distribution and pharmacokinetics, 7.5 and 15 mg/kg oral, pigmented Dutch Belted rabbits (Example 7)
Type: in vivo
Protocol: For Group 1, two animals/time point were sacrificed via an overdose of sodium pentobarbital at approximately 1, 6, 12, 24, 96, 168, and 240 hours postdose. Blood (approximately 2 mL) was collected from all animals at sacrifice into tubes containing K2EDTA via exsanguination (cardiac puncture).
For Groups 2 through 4, blood (approximately 2 mL) was collected via a jugular vein using a syringe and needle and was transferred into tubes containing K2EDTA at approximately 12 hours after the a.m. dose on Day 15 from the two animals designated for sacrifice at approximately 240 hours after the a.m. dose on Day 15.
For Groups 2 through 4, two animals/group/time point were sacrificed via an overdose of sodium pentobarbital prior to dosing on Day 15 and at approximately 1, 6, 24, 96, 168, and 240 hours after the a.m. dose on Day 15. Blood (approximately 2 mL) was collected from all animals at sacrifice into tubes containing K2EDTA via exsanguination (cardiac puncture).
Blood was maintained on wet ice, in chilled cryoracks, or at approximately 5° C. prior to centrifugation to obtain plasma. Centrifugation began within 1 hour of collection (Deviation). Plasma was placed into 96-well tubes with barcode labels. Plasma was maintained on dry ice prior to storage at approximately −70° C.
At the time of sacrifice, both eyes were enucleated, and the following tissues were collected. Each eye was flash-frozen in liquid nitrogen for 15 to 20 seconds. The enucleated eye was placed on dry ice or stored at approximately −70° C. for at least 2 hours. Within approximately 3 days, the frozen matrices were collected as right and left eyes for each matrix into the specific tube type listed.
At the time of frozen collection, the ocular tissues were rinsed with saline and blotted dry (as appropriate), weighed, and placed on dry ice. All ocular tissues were collected as single samples.

[1] = Choroid-RPE (OU), male DB rabbits, Group 1, Day 1, […] single oral dose
[2] = Choroid-RPE (OU), male DB rabbits, Group 2, Day 15, […] BID oral (15 mg/kg/day)
[3] = Choroid-RPE (OU), male DB rabbits, Group 3, Day 15, 15 mg/kg/dose BID oral (30 mg/kg/day)
[4] = DB rabbits, Day 1, […] single dose, 96 hr
[5] = DB rabbits, Day 1, […] single dose, 168 hr
[6] = DB rabbits, Day 1, […] single dose, 240 hr
[7] = Dutch Belted, rabbit, choroid-RPE, oral, 15 mg/kg, DB rabbits, Day 15, 15 mg/kg BID, read-out: Mean Choroid-RPE Concentration
[8] = Dutch Belted, rabbit, choroid-RPE, oral, […], DB rabbits, Day 1, […] single dose, read-out: Mean Choroid-RPE Concentration

SMILES: CC(=O)c1nn(CC(=O)N2C[C@H](F)C[C@H]2C(=O)Nc2cccc(Br)n2)c2ccc(-c3cnc(C)nc3)cc12 [Compound 1, (2S,4R)-1-(2-(3-Acetyl-5-(2-methylpyrimidin-5-yl)-1H-indazol-1-yl)acetyl)-N-(6-bromopyridin-2-yl)-4-fluoropyrrolidine-2-carboxamide]
- Ocular tissue exposure in melanin-containing tissues (ICB and choroid-RPE), DB compared to NZW rabbits (30 mg/kg/day (15 mg/kg/dose, BID)): greater than 10 fold
- AUC0-12 [1]: 5550 ng·h/g
- AUC0-240 [1]: 14000 ng·h/g
- AUC(0-24) [1]: 7580 ng·h/g
- AUC(0-inf) [1]: 14500 ng·h/g
- AUC(0-t) [1]: 14000 ng·h/g
- Ctrough [1]: 260 ng/g
- DN AUC0-12 [1]: 740 (h*ng/g)/(mg/kg/dose)
- DN AUC0-24 [1]: 1010 (h*ng/g)/(mg/kg/day)
- DN Cmax [1]: 96.8 (ng/g)/(mg/kg/day
- AUC0-12 [2]: 18500 ng·h/g
- AUC0-240 [2]: 89100 ng·h/g
- AUC(0-24) [2]: 30100 ng·h/g
- AUC(0-t) [2]: 89100 ng·h/g
- Ctrough [2]: 1250 ng/g
- DN AUC0-12 [2]: 2470 (h*ng/g)/(mg/kg/dose)
- DN AUC0-24 [2]: 4020 (h*ng/g)/(mg/kg/day)
- DN Cmax [2]: 267 (ng/g)/(mg/kg/day
- AUC0-12 [3]: 28200 ng·h/g
- AUC0-240 [3]: 151000 ng·h/g
- AUC(0-24) [3]: 47500 ng·h/g
- AUC(0-t) [3]: 151000 ng·h/g
- Ctrough [3]: 1740 ng/g
- DN AUC0-12 [3]: 1880 (h*ng/g)/(mg/kg/dose)
- DN AUC0-24 [3]: 3170 (h*ng/g)/(mg/kg/day)
- DN Cmax [3]: 265 (ng/g)/(mg/kg/day
- Mean retina concentration (DB rabbits, Day 1, […] single dose, 24 hr): BLQ
- Mean plasma concentration [4]: BLQ
- Mean retina concentration [4]: BLQ
- Mean plasma concentration [5]: BLQ
- Mean retina concentration [5]: BLQ
- Mean plasma concentration [6]: BLQ
- Mean retina concentration [6]: BLQ
- Mean plasma concentration (DB rabbits, Day 15, 15 mg/kg BID, 96 hr): BLQ
- Mean plasma concentration (DB rabbits, Day 15, 15 mg/kg BID, 168 hr): BLQ
- Mean plasma concentration (DB rabbits, Day 15, 15 mg/kg BID, 240 hr): BLQ
- Mean plasma concentration (DB rabbits, Day 15, […] BID, 96 hr): BLQ
- Mean plasma concentration (DB rabbits, Day 15, […] BID, 168 hr): BLQ
- Mean plasma concentration (DB rabbits, Day 15, […] BID, 240 hr): BLQ
- Tmax (Dutch Belted, rabbit, choroid-RPE (choroid-retinal pigment epithelium), Choroid-RPE (OU), male DB rabbits, Group 1, Day 1, 7.5 mg/kg single oral dose): 1 h
- concentration at 0 h (Dutch Belted, rabbit, choroid-RPE, oral, 15 mg/kg, DB rabbits, Day 15, 15 mg/kg BID, 0 hr, read-out: Mean Choroid-RPE Concentration): 1540 ng/g
- concentration at 1 h [7]: 3970 ng/g
- concentration at 6 h [7]: 1880 ng/g
- concentration at 24 h (Dutch Belted, rabbit, choroid-RPE, oral, 15 mg/kg, DB rabbits, Day 15, 15 mg/kg BID, 24 hr, read-out: Mean Choroid-RPE Concentration): 1470 ng/g
- concentration at 96 h (Dutch Belted, rabbit, choroid-RPE, oral, 15 mg/kg, DB rabbits, Day 15, 15 mg/kg BID, 96 hr, read-out: Mean Choroid-RPE Concentration): 441 ng/g
- concentration at 168 h (Dutch Belted, rabbit, choroid-RPE, oral, 15 mg/kg, DB rabbits, Day 15, 15 mg/kg BID, 168 hr, read-out: Mean Choroid-RPE Concentration): 195 ng/g
- concentration at 1 h [8]: 726 ng/g
- concentration at 6 h [8]: 472 ng/g
- concentration at 12 h (Dutch Belted, rabbit, choroid-RPE, oral, […], DB rabbits, Day 1, […] single dose, 12 hr, read-out: Mean Choroid-RPE Concentration): 260 ng/g
- concentration at 24 h (Dutch Belted, rabbit, choroid-RPE, oral, […], DB rabbits, Day 1, […] single dose, 24 hr, read-out: Mean Choroid-RPE Concentration): 78 ng/g
